Here are results for 46 compounds from ChEMBL document CHEMBL4811312, “SAR towards indoline and 3-azaindoline classes of IDO1 inhibitors” (Bioorg Med Chem Lett, 2021).

Series [1] has as its target T1, Indoleamine 2,3-dioxygenase 1 (Homo sapiens, UniProt P14902). Briefly: Inhibition of human IDO1 in human Hela cells at 10 uM relative to control. Type of series: cell-based.
Target sequence in this assay (P14902 whole entry, looked up): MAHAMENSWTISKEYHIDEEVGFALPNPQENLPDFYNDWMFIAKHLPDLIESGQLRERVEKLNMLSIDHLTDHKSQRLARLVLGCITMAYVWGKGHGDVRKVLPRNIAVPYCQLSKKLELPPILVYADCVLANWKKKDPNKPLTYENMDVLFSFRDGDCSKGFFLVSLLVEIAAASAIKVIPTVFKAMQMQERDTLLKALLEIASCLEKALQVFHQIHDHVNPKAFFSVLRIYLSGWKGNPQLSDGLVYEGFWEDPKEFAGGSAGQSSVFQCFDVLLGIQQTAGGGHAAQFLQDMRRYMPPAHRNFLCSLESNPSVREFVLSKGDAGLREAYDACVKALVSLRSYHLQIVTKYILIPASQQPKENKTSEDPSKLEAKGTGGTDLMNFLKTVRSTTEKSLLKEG
Series [2] deals with T1, Indoleamine 2,3-dioxygenase 1. Briefly: Inhibition of human IDO1 in human Hela cells. Type of series: cell-based.
Target sequence in this assay (P14902 whole entry): as the sequence (P14902 whole entry, looked up) above
Series [3] has the same target. In words: Inhibition of human IDO1 in HEK293 cells at 10 uM relative to control. The format is cell-based.
Target sequence in this assay (P14902 whole entry, looked up): as above
For series [4] the target is unchanged. In words: Inhibition of human IDO1 assessed as unbound compound concentration by human whole blood assay. Type of series: tissue-based.
Target sequence in this assay (P14902 whole entry): as the sequence (P14902 whole entry, looked up) above
The target is the same in series [5]. In words: Inhibition of human IDO1 by human whole blood assay. Type of series: tissue-based.
Target sequence in this assay (P14902 whole entry): as the sequence (P14902 whole entry, looked up) above
Series [6] in a line: Clearance in Wistar Han rats at 0.05 mg/kg, iv. The following applies: rat, in vivo. The format is ADME, organism-based.
The nature of series [7]: Unbound clearance in Wistar Han rats at 0.05 mg/kg, iv. Type of series: ADME, organism-based. As to conditions: rat, in vivo.
Series [8] can be described thus: Mean residence time in Wistar Han rat at 0.5 mg/kg, iv. The format is ADME, organism-based. The following applies: in vivo.
Series [9] is described as follows: Clearance in Beagle dog at 0.05 mg/kg, iv. As to conditions: in vivo. The format is ADME, organism-based, Canis lupus familiaris.
Series [10] can be described thus: Unbound clearance in Beagle dog at 0.05 mg/kg, iv. Type of series: ADME, organism-based, Canis lupus familiaris. The following applies: in vivo.
Series [11] is described as follows: Mean residence time in Beagle dog at 0.5 mg/kg, iv. Type of series: ADME, organism-based, Canis lupus familiaris. The following applies: in vivo.

Compound `CC(C)C(=O)N1CCc2cc(CNC(=O)c3ccco3)ccc21` displayed an inhibition in series [1] of 92%. The compound also showed an IC50 in [2] of 92 nM.
The compound `CCC(=O)N1CCc2cc(CNC(=O)c3cccs3)ccc21` returned an inhibition in series [3] of 89%.
On the same count and under the same terms, with `CC(=O)N1CCc2cc(CNC(=O)c3cccs3)ccc21` the figure was 72%; with `CCC(=O)N1CCc2cc(CNC(=O)c3ccnn3C)ccc21`, 14%.
For the compound `CC(C)CC(=O)N1CCc2cc(CNC(=O)c3cccnc3)ccc21`, the inhibition in series [3] stood at 86%.
`COCC(=O)NCc1ccc2c(c1)CCN2C(=O)CC(C)C` gave an inhibition in series [3] of 20%.
In series [3], `CCC(=O)NCc1ccc2c(c1)CCN2C(=O)c1ccccc1` came in with an inhibition of 41%.
In the case of `COCCOC(=O)N1CCc2nc(C3(NC(=O)c4ccc(Cl)cc4)CCC3)ccc21`, the IC50 in series [2] was 6.9 nM.
With `O=C(c1cccc(Cl)c1)N1CCc2nc(C3(C(=O)Nc4ccc(F)cc4)CCC3)ccc21`, the IC50 in series [4] was 0.84 nM.
Regarding `Cc1nccc(N2CCc3nc(C4(C(=O)Nc5ccc(Cl)cc5)CCC4)ccc32)n1`, inhibition in series [2] was half-maximal at 12.5 nM (IC50).
On to `O=C(OC1CC1)N1CCc2nc(C3(C(=O)Nc4ccc(Cl)cc4)CCC3)ccc21`, for which the values for the IC50 in series [5] and in series [2] were 90 nM and 2 nM, respectively.
`CC(C)C(=O)N1CCc2cc(CNC(=O)c3cccs3)ccc21`: in [3], the inhibition amounted to 100%.
Compound `CC(C)CC(=O)N1CCc2cc(CNC(=O)c3cccs3)ccc21` showed an inhibition in series [3] of 100%.
`Cc1nccc(N2c3ccc(C4(NC(=O)c5ccc(F)cc5)CC4)cc3[C@@H]3C[C@@H]32)n1` showed an IC50 in series [2] of 8.2 nM.
As to `Cc1nccc(N2CC3(CC3)c3nc(C4(NC(=O)c5ccc(F)cc5)CC4)ccc32)n1`, the half-maximal inhibitory concentration (IC50) in [2] is 34 nM. This compound also came in with a clearance in series [6] of 7.3 mL/min/kg. In addition, the CL free in series [7] worked out at 1176 mL/min/kg. In series [8], the MRT stood at 3.4 h.
Consider `CCCC(=O)NCc1ccc2c(c1)CCN2C(=O)CC(C)C`, for which the inhibition in series [3] was found to be 64%.
Regarding `O=C(C1CC1)N1CCc2nc(C3(C(=O)Nc4ccc(F)cc4)CCC3)ccc21`, the IC50 in [5] came out at 330 nM; in [2], 8 nM; in series [4], 29 nM. In series [6], this compound had a clearance of 60 mL/min/kg. Besides, the CL free in series [7] came out at 668 mL/min/kg. This compound registered a mean residence time (MRT) in series [8] of 1.2 h.
With `Cc1nccc(N2CCc3cc(C4(C(=O)Nc5ccc(F)cc5)CCC4)ccc32)n1`, the IC50 in [5] amounted to 430 nM; in series [2] it was 5.2 nM.
As for `O=C(Nc1ccc(Cl)cc1)C1(c2ccc3c(c2)CCN3c2ccccn2)CCC1`, the IC50 in series [5] was determined as 640 nM; in series [2], 1.6 nM.
Consider `O=C(Nc1ccc(Cl)cc1)C1(c2ccc3c(n2)CCN3c2ccccn2)CCC1`, for which the 50% inhibitory concentration (IC50) in series [5] came to 340 nM; in [2], 2.3 nM; in series [4], 0.34 nM. Moreover, the clearance in series [6] stood at 53 mL/min/kg. This compound also showed a CL free in series [7] of 35929 mL/min/kg. In series [8], the mean residence time (MRT) was determined as 2.2 h.
In series [3], `CC(C)C(=O)N1CCc2cc(CNC(=O)c3ccccc3)ccc21` showed an inhibition of 100%.
For the compound `CC(C)C(=O)N1CCc2cc(CNC(=O)c3ccc(Cl)cc3)ccc21`, in series [3], the inhibition was 92%.
As for `O=C(OC1CC1)N1CCc2nc(C3(C(=O)Nc4ccc(F)cc4)CCC3)ccc21`, the IC50 in series [2] was determined as 2.7 nM. In addition, the clearance in [6] was found to be 61 mL/min/kg. In addition, the CL free in [7] amounted to 1691 mL/min/kg. In series [8], this compound gave an MRT of 2.7 h.
Turning to `O=C(NC1(c2ccc3c(n2)C2(CC2)CN3C(=O)OC2CC2)CC1)c1ccc(F)cc1`, inhibition in series [2] was half-maximal at 12 nM (IC50).
With `CCC(=O)N1CCc2cc(CNC(=O)c3ccc(F)cc3)ccc21`, the inhibition in series [3] was 96%.
Take `O=C(NC1(c2ccc3c(n2)CCN3C(=O)OC2CC2)CCC1)c1ccc(Cl)cc1`: the IC50 in series [5] turned out to be 63 nM; in series [2], 4.5 nM; in [4], 0.63 nM. The same compound yielded a clearance in series [6] of 20 mL/min/kg. In series [7], this compound yielded a CL free of 2049 mL/min/kg. In addition, the MRT in [8] turned out to be 3.2 h.
`O=C(OC1CC1)N1CCc2cc(C3(C(=O)Nc4ccc(F)cc4)CCC3)ccc21`: the IC50 was determined as 1.4 nM in series [2] and 0.45 nM in series [4]. The compound also yielded a clearance in [6] of 87 mL/min/kg. The compound further had a CL free in series [7] of 7720 mL/min/kg. The MRT in series [8] amounted to 1.8 h.
Regarding `O=C(Nc1ccc(F)cc1)C1(c2ccc3c(c2)CCN3c2ccccn2)CCC1`, the IC50 in [2] came to 3.1 nM.
For the compound `Cc1nccc(N2c3ccc(C4(NC(=O)c5ccc(F)cc5)CC4)cc3[C@H]3CC[C@H]32)n1`, the IC50 in series [5] worked out at 64 nM; in series [2], 3.8 nM.
`O=C(NCc1ccc2c(c1)CCN2C(=O)c1cccc(Cl)c1)c1ccc(Cl)cc1`: the inhibition in [1] was found to be 90%. It took 90 nM to reach half-maximal inhibition in [2] (IC50).
With `COC(=O)N1c2ccc(C3(NC(=O)c4ccc(F)cc4)CC3)cc2[C@H]2CC[C@H]21`, the figures for the half-inhibitory concentration (IC50) in series [5], in [2] and in series [4] were 300 nM, 2.8 nM and 4.1 nM, respectively. In series [6], this compound returned a clearance of 32 mL/min/kg. Besides, the CL free in series [7] was 2318 mL/min/kg. In [8], this compound gave an MRT of 1 h.
Compound `CC(C)C(=O)N1CCc2cc(CNC(=O)c3ccc(F)cc3)ccc21` had an inhibition in [3] of 88%.
For the compound `Cc1nccc(N2CCc3nc(C4(C(=O)Nc5ccc(F)cc5)CCC4)ccc32)n1`, the IC50 in series [5] amounted to 430 nM; in series [2] it was 21 nM.
Turning to `CC(C)NC(=O)NCc1ccc2c(c1)CCN2C(=O)c1ccccc1`, in series [3], the inhibition was determined as 45%.
`O=C(NC1(c2ccc3c(n2)CCN3C(=O)OC2CC2)CC1)c1ccc(Cl)cc1`: the figures for the clearance in series [9] and in [6] were 14 mL/min/kg and 4.8 mL/min/kg, respectively. For the same compound, the values for the CL free in series [10] and in series [7] were 4800 mL/min/kg and 174 mL/min/kg, respectively. Moreover, the MRT in series [11] was 4.9 h; in series [8], 2.9 h. Moreover, the IC50 in series [5] was determined as 390 nM; in [2] it was 4.1 nM; in series [4], 11 nM.
`COC(=O)N1c2ccc(C3(NC(=O)c4ccc(F)cc4)CC3)cc2[C@@H]2CC[C@@H]21` gave an IC50 in [2] of 5.6 nM. The compound also returned a clearance in [6] of 29 mL/min/kg. The CL free in [7] is 2899 mL/min/kg. Also, in series [8], the MRT was 0.8 h.
The compound `O=C(Nc1ccc(F)cc1)C1(c2ccc3c(n2)CCN3c2ccnc(C(F)(F)F)n2)CCC1` registered an IC50 in [2] of 127 nM.
For the compound `Cc1nccc(N2c3ccc(C4(NC(=O)c5ccc(F)cc5)CC4)cc3[C@H]3C[C@H]32)n1`, the results for the IC50 in series [5] and in series [2] were 180 nM and 2.9 nM, respectively. Moreover, the clearance in series [6] is 3.3 mL/min/kg. Further, the mean residence time MRT in series [8] stood at 3.6 h.
`CCC(=O)N1CCc2cc(CNC(=O)c3cccc(Cl)c3)ccc21` showed an inhibition in series [3] of 77%.
For `CC(C)CC(=O)N1CCc2cc(CNC(=O)c3ccco3)ccc21`, in series [3], the inhibition was 100%.
The compound `CCC(=O)N1CCc2cc(CNC(=O)c3cccc(F)c3)ccc21` displayed an inhibition in [3] of 82%.
With `O=C(NC1(c2ccc3c(n2)CCN3c2ccnc(C(F)(F)F)n2)CCC1)c1ccc(Cl)cc1`, the 50% inhibitory concentration (IC50) was determined as 240 nM in series [5] and 93 nM in [2].
Regarding `CC(C)CC(=O)N1CCc2cc(CNC(=O)C3CC3)ccc21`, the inhibition in series [3] is 35%.
Regarding `Cc1nccc(N2c3ccc(C4(NC(=O)c5ccc(F)cc5)CC4)cc3[C@@H]3CC[C@@H]32)n1`, the IC50 in series [5] was found to be 66 nM; in series [2], 5 nM.
Regarding `Cc1nccc(N2CCc3nc(C4(NC(=O)c5ccc(Cl)cc5)CCC4)ccc32)n1`, the midpoint of inhibition in [2], the IC50, lay at 46 nM.
Consider `CCC(=O)N1CCc2cc(CNC(=O)c3ccccc3)ccc21`, for which the inhibition in [3] worked out at 87%.

In general, inhibition refers to the relative decrease from the control value, in per cent. By IC50 is commonly meant the concentration needed to halve the response being measured. Usually clearance stands for the rate of elimination divided by the concentration. Read a high clearance as efficient removal. A word on the MRT: it is the average time that molecules of a dose stay in the body.
